From patent US20230356105A1, “TETRAAZADODECANE BASED CHELATING AGENTS FOR SEPARATION OF RARE EARTH ELEMENTS AND METHOD THEREFOR” (Ustav Organicke Chemie a Biochemie AV CR V.V.I., priority 2020, published 2023)

Columns and labels:
Assay type in all cases: physicochemical
[1] = Separation of Nd/Pr/Tb/Dy mixture by precipitation using L5 and acetate (Example 22); conditions: for solution after 20 hrs / solution after 2 days: acetate buffer pH=5.8; for solution after 20 hrs composition / solution after 2 days composition: percent molar
Method: A reaction mixture was prepared analogously to Example 21), with the differences being the use of sodium acetate buffer pH=5.8 in place of MOPS pH=7, an additional aliquot taken for analysis after 2 days, and the lack of ICP-OES analysis on the precipitated portions of the solution — that is, only the supernatants were analysed. Otherwise, the reaction was run analogously to Example 21). The percent molar composition of each is also provided, showing the improved selectivity in precipitation under these conditions, compared to Example 21).

[2] = Removal of additive from remaining solution after precipitation by ultrafiltration (Example 25); conditions: Ln chelates of L5
[3] = Separation of Pr from L5 by C18 column (Example 28)
Method: Stock solutions were pipetted into a 20 mL glass vial to prepare a reaction mixture as follows: • 1. 1.00 mL 100 mM aqueous solution of PrCl3 • 2. 0.60 mL 218 mM aqueous solution of L5
NaOH (2 M aqueous stock solution) was added by micropipette to titrate the reaction pH to 6. This reaction was stirred by the use of a PTFE-coated stir bar on a magnetic stirrer at room temperature for 30 minutes. The resulting suspension was transferred into two 2 mL plastic Eppendorf centrifuge tubes and centrifuged. The supernatant was set aside and analysed by HPLC, and the precipitate was dissolved by addition of 0.15 mL 1 M HCl to each Eppendorf tube. These dissolved solutions were combined and titrated to pH 2 by addition of 2 M NaOH.
The L5 and Pr present in the acidic solution were separated by reverse-phase chromatography, using 1.01 g fully-endcapped C18 silica gel in a plastic SPE cartridge (2 cm diameter). After conditioning the reversed phase with MeCN and MeCN/H20 solutions, 1 mL of H2O was run through the column before loading the L5-Pr solution onto the column. MeCN/H20 solutions were used to elute the components from the column: 2 mL 0% MeCN, 4 mL 10% MeCN, 4 mL 25% MeCN, and 4 mL 50% MeCN. The eluted solutions were collected as seven 2 mL fractions. All fractions were analysed by HPLC-MS to determine L5 content. The first two fractions were also analysed by ICP-OES to determine Pr content.
The distribution of L5 and Pr in the fractions is shown in Table 21, where the quantity of each component present in each fraction is provided as a fraction of the total quantity of the component found in the sum of the fractions, as well as the measured content of Pr (in mM) and L5 (as the integrations of the chromatographic peak areas at 280 nm) found in each fraction.

O=C(O)CN1CCN(CC(=O)O)CCN(Cc2cccc3ccccc23)CCN(CC(=O)O)CC1 [L5, 2,2′,2″-(10-(naphthalene-1-ylmethyl)-1,4,7,10-tetraazacyklododekane-1,4,7-triyl)triacetic acid]
solution after 20 hrs ([1]; Ln=Dy): 5.41 mM | solution after 2 days ([1]; Ln=Dy): 5.00 mM | solution after 20 hrs composition ([1]; Ln=Dy): 16.4% | solution after 2 days composition ([1]; Ln=Dy): 28.1% | solution after 20 hrs ([1]; Ln=Nd): 17.01 mM | solution after 2 days ([1]; Ln=Nd): 6.42 mM | solution after 20 hrs composition ([1]; Ln=Nd): 51.5% | solution after 2 days composition ([1]; Ln=Nd): 36.1% | solution after 20 hrs ([1]; Ln=Pr): 4.78 mM | solution after 2 days ([1]; Ln=Pr): 1.57 mM | solution after 20 hrs composition ([1]; Ln=Pr): 14.5% | solution after 2 days composition ([1]; Ln=Pr): 8.8% | solution after 20 hrs ([1]; Ln=Tb): 5.84 mM | solution after 2 days ([1]; Ln=Tb): 4.77 mM | solution after 20 hrs composition ([1]; Ln=Tb): 17.7% | solution after 2 days composition ([1]; Ln=Tb): 26.9% | % of initial [chelate] in filtrate ([2]; additive acetate 76 mM): 0.8% | % of initial [chelate] in filtrate ([2]; additive benzoic acid 76 mM): 0.3% | % of initial [chelate] in filtrate ([2]; additive α-HIBA 30.4 mM): 0.4% | % distribution in fractions L5 ([3]; fraction 1 (0% MeCN)): 0.0% | % distribution in fractions Pr ([3]; fraction 1 (0% MeCN)): 87% | measured content of fraction L5 peak area (280 nm) ([3]; fraction 1 (0% MeCN)): 0 AU | measured content of fraction Pr ([3]; fraction 1 (0% MeCN)): 18.95 mM | % distribution in fractions L5 ([3]; fraction 2 (10% MeCN)): 0.1% | % distribution in fractions Pr ([3]; fraction 2 (10% MeCN)): 13% | measured content of fraction L5 peak area (280 nm) ([3]; fraction 2 (10% MeCN)): 3 AU | measured content of fraction Pr ([3]; fraction 2 (10% MeCN)): 2.82 mM | % distribution in fractions L5 ([3]; fraction 3 (10% MeCN)): 56.8% | measured content of fraction L5 peak area (280 nm) ([3]; fraction 3 (10% MeCN)): 2258 AU | % distribution in fractions L5 ([3]; fraction 4 (25% MeCN)): 34.8% | measured content of fraction L5 peak area (280 nm) ([3]; fraction 4 (25% MeCN)): 1382 AU | % distribution in fractions L5 ([3]; fraction 5 (25% MeCN)): 8.1% | measured content of fraction L5 peak area (280 nm) ([3]; fraction 5 (25% MeCN)): 324 AU | % distribution in fractions L5 ([3]; fraction 6 (50% MeCN)): 0.1% | measured content of fraction L5 peak area (280 nm) ([3]; fraction 6 (50% MeCN)): 5 AU | % distribution in fractions L5 ([3]; fraction 7 (50% MeCN)): 0.1% | measured content of fraction L5 peak area (280 nm) ([3]; fraction 7 (50% MeCN)): 3 AU
